# US11058690B2, “Use of cytochrome bc1 complex inhibitor in preparing pharmaceutical composition” (BEIJING WEILANZHIYUAN MEDICAL TECHNOLOGY CO., LTD., priority 2017, dated 2021)
# Legend:
# [1] = system: rat uterine smooth muscle; experiment: contraction of isolated rat uterine smooth muscle strips induced by PGF2α; assay type: cell-based; conditions: PGF2α (450 nM); for IC50: area under the contraction curve 10 minutes after drug, read-out: IC50, inhibition of uterine smooth muscle contraction
# Protocol: Female healthy Wistar rats weighing 230-270 g were used in the experiment. At 2 days before the experiment, Diethylstilbestrol suspension was injected intraperitoneally once at 0.1 mg/kg, resulting in artificial estrus. The rats were sacrificed by cervical dislocation, and the uterus was removed by laparotomy and immediately placed in a glass plate containing Tyrode's solution. Connective and adipose tissues attached to the uterine wall were carefully peeled off, the uterus was cut open along the mesangial line and laid flat on the bottom of the glass plate, then one side of the uterus was divided into left and right uterine muscle strips by using a surgical blade along the uterine contraction band running along smooth muscle, the two ends of the uterine muscle strip on one side were ligated with wires respectively, and then transferred into a nutrient tube which was aerated with oxygen and filled with 5 ml of Tyrode's solution and preheated to 37.2±0.5° C., with a lower end fixed and an upper end connected with a tension sensor. The materials stood for 20-30 minutes, liquid was changed 2-3 times, then the uterus was given a load of 1 g and kept for 30-60 minutes until the uterus had regular contraction waves, 40 mM KCL solution was provided for 10 minutes, and the function of the uterine muscle strips was evaluated. Then the muscle strips were relaxed and washed 2-3 times with Tyrode's solution, then let stand for 30 minutes; after standing, the uterine muscle strips were given a load of 1 g and kept for 30-60 minutes, and the administration and the observation were carried out after the uterine muscle strips contracted stably (i.e. regular contraction waveforms appear in a microcomputer display screen), the changes of relevant data such as contraction tension, amplitude and area under the contraction curve of the uterine smooth muscle strips were recorded, and the drug given was evaluated. During the experiment, the working temperature of the Tyrode's solution was kept at 37.2±0.5° C., and oxygen was continuously aerated into the nutrient tube with 1-2 bubbles per second. A cumulative dosing method was adopted, and 5 μl was administered each time, from low concentration to high concentration. A final drug concentration refers to the concentration of the drug dissolved in 5 ml Tyrode's solution in a […] tube.
# Fluacrypyrim (FAPM), the first strobilurin acaricide developed by BASF SE and Nippon Soda Co., Ltd., is a Qo site inhibitor of the mitochondrial cytochrome bc1 complex. […] The area under the smooth muscle contraction curve was calculated before drug intervention and 10 minutes after different doses of drug intervention respectively. A drug dose-effect curve was plotted by taking the area under the smooth muscle contraction curve caused by PGF2α as 100%, to calculate the median effective dose (IC50 value) of the drug for inhibiting uterine smooth muscle contraction.
# [2] = system: rat uterine smooth muscle; experiment: contraction of rat uterine smooth muscle induced by oxytocin; assay type: cell-based; conditions: oxytocin (1 mU/ml)
# Protocol: (§1) Female healthy Wistar rats weighing 230-270 g were used in the experiment. At 2 days before the experiment, Diethylstilbestrol suspension was injected intraperitoneally once at 0.1 mg/kg, resulting in artificial estrus. The rats were sacrificed by cervical dislocation, and the uterus was removed by laparotomy and immediately placed in a glass plate containing Tyrode's solution. […] The materials stood for 20-30 minutes, liquid was changed 2-3 times, then the uterus was given a load of 1 g and kept for 30-60 minutes until the uterus had regular contraction waves, 40 mM KCL solution was provided for 10 minutes, and the function of the uterine muscle strips was evaluated. Then the muscle strips were relaxed and washed 2-3 times with Tyrode's solution, then let stand for 30 minutes; after standing, the uterine muscle strips were given a load of 1 g and kept for 30-60 minutes, and the administration and the observation were carried out after the uterine muscle strips contracted stably (i.e. regular contraction waveforms appear in a microcomputer display screen), the changes of relevant data such as contraction tension, amplitude and area under the contraction curve of the uterine smooth muscle strips were recorded, and the drug given was evaluated. […]
# [3] = system: rat uterine smooth muscle; experiment: contraction of rat uterine smooth muscle induced by acetylcholine; assay type: cell-based; conditions: acetylcholine (0.25 μM)
# Protocol: as §1
# [4] = system: MLC20; experiment: phosphorylation of MLC20 in rat uterine smooth muscle cells induced by PGF2α (Western blotting); assay type: cell-based; conditions: 5 μM and 10 μM pretreatment; PGF2α stimulation 5 minutes
# Source text: A tissue mass culture method was adopted: rats treated with diethylstilbestrol were sacrificed through dislocation and soak in 75% alcohol for disinfection, open the abdominal cavity under an aseptic condition, separate the uterus, transfer it to a plate, cut open the uterus to remove the outer membrane of the uterus, gently scrape off the inner membrane of the uterus with a blade, gently peel off the outer membrane of the uterus with a tweezer, cut the intact smooth muscle into small pieces of less than 1×1×1 mm^3, uniformly stick them to the wall of a culture bottle, add a culture solution with the bottom up, gently turn over after culture at 5% CO2 and 37° C. for 3-4 hours, and soak in an RPMI-1640 culture solution (containing 20% calf bovine serum) for about one week until the cells can be connected into pieces to form monolayer cultured cells. At this time, the culture solution in the bottle was poured out, the tissue masses in the bottle were washed twice with PBS and removed, and a proper amount of 0.25% trypsin was added. Calf bovine serum was added to stop the reaction when most cells contracted and became round under microscope, the liquid was poured out, and the cells were washed twice with PBS and added with a proper amount of RPMI-1640, and the eluted cells were gently washed with a pipette to prepare a cell suspension for later use. […]
# [5] = system: Mouse mononuclear macrophage RAW 264.7; experiment: nitric oxide production by LPS-stimulated macrophages (Griess assay); assay type: cell-based; conditions: LPS 1 μg/mL, 24 h
# [6] = system: SD rats; experiment: carrageenan-induced rat paw swelling test; assay type: in vivo
# Protocol: Eighteen healthy adult male mice were randomly divided into 3 groups. FAPM (100 mg/kg) was administered intraperitoneally once a day for 3 consecutive days. The control group was injected with the same amount of solvent, and the positive drug dexamethasone (4 mg/kg) was administered intragastrically once a day for 3 consecutive days. Thirty minutes after the last administration, 0.1 mL of 1% carrageenan was injected subcutaneously into the right hind paw of each rat, and the plantar thickness was measured before injection and 1, 2 and 3 hours after injection. Three hours later, the rats were sacrificed by dislocation. The feet were cut off from the knee joints and weighed on a precision balance. The swelling degree of the paw (right foot weight-left foot weight) was calculated.
compound,measurement,setting,value
"CO/C=C(/C(=O)OC)c1ccccc1COc1cc(C(F)(F)F)nc(OC(C)C)n1 [FAPM, fluacrypyrim]",inhibitory effect on PGF2α-induced contraction,[1]; amplitude and frequency,in a dose-dependent manner
same,IC50,[1],1690 ± 160 nM
same,IC50,"[1]; Rattus norvegicus, 10 min",1840 ± 80 nM
same,IC50,[2],1600 ± 80 nM
same,IC50,[3],1360 ± 40 nM
same,"phosphorylation of MLC20 (gray analysis, words)",[4],significantly inhibited
same,Maximum inhibition rate,[5]; in %,80%
same,IC50,"[5]; Mus musculus, RAW264.7, read-out: IC50, NO production",3800 nM
same,Paw swelling thickness 1 h,"[6]; 100 mg/Kg intraperitoneal once a day for 3 days, 1 h after carrageenan",5.72 ± 0.29 mm
same,Paw swelling thickness 2 h,"[6]; 100 mg/Kg intraperitoneal once a day for 3 days, 2 h after carrageenan",5.92 ± 0.19 mm
same,Paw swelling thickness 3 h,"[6]; 100 mg/Kg intraperitoneal once a day for 3 days, 3 h after carrageenan",6.24 ± 0.20 mm
same,Paw swelling (right foot weight-left foot weight),"[6]; 100 mg/Kg intraperitoneal once a day for 3 days, 3 hours after carrageenan",0.834 ± 0.32 g
same,carrageenan-induced rat paw swelling,[6]; 100 mg/kg intraperitoneal,significantly inhibited
